Results: patent US11472825B2, “Real-time fluorescence imaging sensor for measuring glutathione in organelle and preparation method therefor” (CELL2IN, INC., priority 2017, dated 2022)

How the values were obtained:
[1] = tested on: mitochondrial glutathione in HeLa cells; experiment: Real-time imaging of living cells loaded with MitoFreSH-tracer (confocal, F510/F580 ratio); assay type: cell-based
Procedure: 1-5. Real-Time Imaging of Living Cells
HeLa cells were cultured in DMEM (containing 10% heat-inactivated FBS (Hyclone), 100 U/ml of penicillin, 100 μg/ml of streptomycin sulfate and 2 mM glutamine aid free of phenol red). HeLa cells were seeded in 35 mm cover glass bottom dishes (SPL Life Sciences), and then cultured under the conditions of 37° C. and 5% CO2 for foe indicated time. Before observation using a fluorescence microscope, the HeLa cells were incubated with 2 mL of a medium containing 10 μM of the FreSH-tracer-derived compound for 0.5 to 1.5 hours. After washing twice with PBS, real-time images of the cells were acquired using a Nikon A1 laser scanning confocal microscope. […] The FreSH-tracer-derived compound was excited with laser beams at 403 nm and 488 nm, and the fluorescence of the tracer-derived compound was detected through filters with 500-550 nm and 570-620 nm band intervals, respectively. Using NIS-Elements AR software, the experimental data were analyzed and the ratio of fluorescence was imaged (see FIGS. 4 and 5).
The present inventors have studied the applicability of the MitoFreSH-tracer to examination of changes in mitochondrial glutathione levels in living cells. […] The sensor fluorescence intensity ratio calculated from images of the living cells was reduced by treatment with diamide (FIGS. 4B and 4C). […]

[2] = tested on: glutathione in the Golgi apparatus of HeLa cells; experiment: High-throughput cell imaging of cells loaded with GolgiFreSH-tracer; assay type: cell-based
Procedure: 1-6. High-Throughput Cell Imaging
HeLa cells were cultured in DMEM (containing 10% heat-inactivated FBS (Hyclone), 100 U/ml of penicillin, 100 μg/ml of streptomycin sulfite and 2 mM glutamine and free of phenol red). HeLa cells were seeded in Greiner 96-well dishes (Sigma-Aldrich), and then cultured under the conditions of 37° C. and 5% CO2 for the indicated time. Before observation using a fluorescence microscope, the HeLa cells were incubated with a medium containing 10 μM of the GolgiFreSH-tracer for 0.5 to 1.5 hours. After washing twice with Hank's balanced salt solution, real-time images of the cells were acquired using an Operetta High-Content Imaging System (PerkinElmer). The imaging test was performed while the cells w ere incubated under the conditions of 37° C. and 5% CO2 in a chamber mounted in the microscope. The GolgiFreSH-tracer was excited with LED light at 410-430 nm and 490-510 nm, and the fluorescence of the tracer was detected through filters with 460-540 nm and 560-630 nm band intervals, respectively. BODIPY TR C5ceramide was excited with LED light at 560-580 nm, and the fluorescence thereof was detected through filters with 590-640 nm band intervals. Using the Harmony software, the experimental data were analyzed (see FIGS. 4, 5 and 8). […]

CN(C)C(=O)/N=N/C(=O)N(C)C [diamide, Diamide]
sensor fluorescence intensity ratio (F510/F580) of MitoFreSH-tracer in living cells ([1]; HeLa cells loaded with MitoFreSH-tracer, 0.5 mM diamide): reduced
fluorescence intensity ratio of GolgiFreSH-tracer in living cells ([2]; living cells treated with various concentrations of diamide): decreased depending on the concentration
sensor fluorescence intensity ratio of GolgiFreSH-tracer in living cells ([2]; sensor-loaded living cells, 1 mM diamide): reduced

Antimycin A
fluorescence intensity ratio of MitoFreSH-tracer in living cells ([1]; cells treated with antimycin A for 75 minutes, various concentrations): decreased depending on the concentration
